Experiments:
[1] = Concentration dependence / sensitivity of fluorescent ozone detection; conditions: MeOH/pH 7 buffer (5:95), samples diluted 10-fold
Method: FIG. 2B is a correlation between fluorescent intensity and ozone in 5:95 MeOH/pH 7 buffer after ten-fold dilution of original samples. The linear correlation is y=0.000900x+0.0467; R^2=0.987; average standard deviation=0.00844. The intensity continued to be linear up to 12.5 μM.
The present invention the sensitivity of our fluorescent method for ozone detection was examined. The fluorescent intensity correlated to the concentration of ozone in the 50 nM-12.5 μM (2.4-600 ppbv) range with S/B of 2.6-310 after 10-fold dilution of the original samples (0-500 nM shown in FIG. 2B). The level of detection is 59 nM (2.9 ppbv; S/B=3) and the level of quantitation is 340 nM (16 ppbv; S/B=10).
Concentration dependence. […] Error bars were determined from the calculated mean and standard deviation (Prism 5.0a, GraphPad Software, Inc.).

[2] = Ozone detection in indoor air on adsorbent paper strips; conditions: 500 nmol on adsorbent paper, photocopy room, eight hours
Method: One embodiment of the present invention can be a badge that contains compound 4 that may be worn by patients so their total ozone exposure can be continuously measured through the day. A proof-of-principle experiment was conducted with compound 4 and compound 1 as a comparative. A solution of compound 4 (500 nmol) in dimethylsulfoxide (DMSO) was absorbed on a piece of adsorbent paper and allowed to dry. The paper strips were stored in an office room that had two photocopiers and two laser printers. After eight hours, the paper strips were removed and placed in a vial that contained oH 7 buffer to elute the dyes. […] The deviation in these values is presumably because of photobleaching and the lack of specificity of compound 1 towards various ROS, including singlet oxygen.
Ozone detection in indoor air. FIG. 10 are photographic illustrations of results of Ozone detection tests in indoor air using the present invention. The top photograph is a Kimwipe® before placing into photocopy room for 8 hours. The bottom photographs are a Kimwipe® in buffer for absorbance and fluorescence measurement, wherein the left photograph is an indigo carmine taken in room light), and the right photograph is compound 4 taken under long-range UV lamp. One adsorbent paper (Kimwipe®) was cut into two 11×9 cm pieces. Solution A (50 μL, 500 nmol of compound 4) was added to one portion of the Kimwipe® and allowed to dry (FIG. 10, top right). Solution B (50 μL, 500 nmol of indigo carmine) was added to the other portion of the Kimwipe® and allowed to dry (FIG. 10, top left). After overnight drying in a laboratory drawer, the paper strips were moved to a poorly ventilated photocopy room (2 photocopiers and 2 laser printers) for 8 hours. The controls remained in the laboratory drawer. After 8 hours, the samples were placed into a scintillation vial, and the dyes were eluted with pH 7 buffer (6.0 mL) (˜5 min) before fluorescence and absorbance measurement. […] FIGS. 3C-D error bars were determined from the calculated mean and standard deviation (Prism 5.0a, GraphPad Software, Inc.).

[3] = Ozone detection method, fluorescence turn-on of sensor in aqueous buffer / cell culture media
Method: In order to develop a fluorescent method amenable to both biological and atmospheric detection, pH 7 buffer ([PO4^3−]=5 mM) is chosen to perform the conversion of sensor 4, such as homoallyl ether, to fluorescent compound 7. A solution of sensor 4 in 5:95 MeOH/pH 7 buffer at 24° C. is exposed to ozone, incubated at 37° C. for 1 hour to facilitate β-elimination, and formation of fluorescent compound 7 is observed (signal-to-background (S/B)=Sample B (28)/Sample A (0.35)=80) (FIG. 2a). For an ozone detection method in the presence of cells, the ozonolysis reaction is performed in a mixture of pH 7 buffer and RPMI-1640 cell culture media (3:1).
Ozone detection method. Solutions of compound 4 ([4]final=12.5 μM) in 5:95 MeOH/pH 7 buffer ([PO4^3−]=5 mM) solution (4.0 mL) were prepared, and the samples were exposed to ozone at 24° C. followed by 1 hour incubation at 37° C. before fluorescence measurement (except for the ambient air experiments). The concentration of ozone was 5 μM for these studies. Fluorescence spectra were recorded in a 1×1-cm disposable cuvette on a Jobin Yvon FluoroMax-3 spectrometer under the control of a Windows-based PC running FluorEssence software. The samples were excited at 497 nm and the emission intensities were collected at 523 nm. All spectra were corrected for emission intensity using the manufacturer supplied photomultiplier curves.
Ozone: Solution A (5.0 μL, [compound 4 or compound 8]final=12.5 μM) was added to a mixture of MeOH/pH 7 buffer ([PO4^3−]=5 mM) (5:95) (4.0 mL), and the samples were exposed to ozone (˜5 μM) at 24° C. followed by 1 hour incubation at 37° C. before fluorescence measurement.

Relative quantum yields = assay type: physicochemical; conditions: relative to fluorescein; phosphate buffer pH=7.0, excited at 490 nm
Method: Relative Quantum Yields. To determine quantum yields relative to fluorescein, a stock solution of compound 4 was prepared in DMSO (1 mM) and diluted in phosphate buffer (pH=7.0) to OD490=0.09. The samples were excited at 490 nm and the integrated emission spectra were compared. The quantum yields of all compounds were referenced to fluorescein in 0.1 N NaOH (Φ=0.95). The quantum yield for compound 4 was calculated as 0.00132

Question: With C=CCCOc1cc2oc3cc(=O)c(Cl)cc-3c(-c3ccccc3CO)c2cc1Cl [compound 4] as the compound, how does the “background signal (fluorescence intensity, λem=523 nm)” value [1] read?
Answer: 0.0377×10^5

Question: And the “compound 7 generated on paper strip” value [2]?
Answer: 0.95 nmol

Question: And the “fluorescent intensity at 523 nm, Sample A (no ROS)” value ([3]; 12.5 μM sensor, 5:95 MeOH/pH 7 buffer, no ozone (background))?
Answer: 0.35 a. u.×10^5

Question: And the “fluorescent intensity at 523 nm, Sample B (ozone)” value ([3]; 12.5 μM sensor, 5:95 MeOH/pH 7 buffer, ozone at 24° C. then 1 hour at 37° C.)?
Answer: 28 a. u.×10^5

Question: And the “signal-to-background (S/B)” value ([3]; 5:95 MeOH/pH 7 buffer, ozone at 24° C. then 1 hour at 37° C.)?
Answer: 80

Question: What about the “signal-to-background (S/B)” value ([3]; mixture of pH 7 buffer and RPMI-1640 cell culture media (3:1)) of the same compound?
Answer: 104

Question: What about the quantum yield (Relative quantum yields) of the same compound?
Answer: 0.00132

From patent US8361802B2, “Fluorescent ozone sensor” (University of Pittsburgh—Of the Commonwealth System of …, priority 2009, dated 2013)
